{"source": "patent US20110208153A1", "about": "“FORMULATIONS AND METHODS FOR NUTRIENT DELIVERY” (priority 2010, published 2011)", "test_system": "pre-retinal neovascularization", "assay": "pre-retinal neovascularization in the OIR mouse model following gavage treatments", "assay_type": "in vivo", "conditions": "for pre-retinal neovascularization relative to vehicle control: P<0.05", "excerpt": "FIG. 1 provides a graphical summary of the analysis of pre-retinal neovascularization levels in the mouse model following gavage treatments. The numbers in brackets in the legend refer to gavage doses in g/kg bodyweight/day. An * indicates P-values<0.05."}
{"compound": "CC/C=C\\C/C=C\\C/C=C\\C/C=C\\C/C=C\\C/C=C\\CCC(=O)O", "note": "[DHA, docosahexaenoic acid]", "values": [{"measurement": "pre-retinal neovascularization relative to vehicle control", "setting": "2.5 g/kg body weight/day", "value": "49±4", "unit": "%"}]}
{"compound": "arginyl-glutamine dipeptide [Arg-Gln dipeptide]", "values": [{"measurement": "effect on pre-retinal neovascularization (in words)", "value": "dose-dependent reduction"}, {"measurement": "pre-retinal neovascularization relative to vehicle control", "setting": "5 g/kg of body weight/day", "value": "39±6", "unit": "%"}]}
